{
  "source": "a melting point compilation (Tetko et al.; mined from patent text by program, amines drawn as free bases though some values may be those of a salt)",
  "data": [
    {"units": {"melting point": "°C"}, "values": [
      {"smiles": "CC1(C)CN=C2C(c3ccccc3)=[N+]([O-])c3cc(C(F)(F)F)ccc3N2C1", "melting point": "225 to 227"},
      {"smiles": "COc1ccc2c(c1)C[C@@H](C(N)=O)CC2", "melting point": "159 to 161"},
      {"smiles": "O=C(CF)CS(=O)(=O)C(c1ccc(Cl)cc1)c1ccc(Cl)cc1", "melting point": "55 to 58"},
      {"smiles": "Cn1c(C(F)(F)F)cc(=O)n(-c2cc([N+](=O)[O-])c(Br)cc2F)c1=O", "melting point": "124 to 125"},
      {"smiles": "COc1nc2cc(F)cc(C)c2nc1OC", "melting point": "107 to 109"},
      {"smiles": "CCOC(=O)c1cn(-c2ccc(F)cn2)c2c(F)c(F)c(F)cc2c1=O", "melting point": "203 to 205"},
      {"smiles": "CN1CCC(OC(c2cccc(SCCNC(=N)NC#N)c2)c2nc3ccccc3[nH]2)CC1", "note": "(centres undefined)", "melting point": 65},
      {"smiles": "O=C(NC1CCCCC1)c1c(O)c2ccccc2n(Cc2ccc(F)cc2)c1=O", "melting point": 168},
      {"smiles": "CCC(=NC#N)N(C)C(C)c1ccc(Cl)cc1Cl", "note": "(centres undefined)", "melting point": 148},
      {"smiles": "CC(O)C(NC(=O)OCc1ccccc1)C(=O)NN", "note": "(centres undefined)", "melting point": 135},
      {"smiles": "CCCCN(C)S(=O)(=O)C1=C(C)NC(C)=C(C(=O)OCC2CC2)C1c1cccc([N+](=O)[O-])c1", "note": "(centres undefined)", "melting point": "93 to 96"},
      {"smiles": "C[C@@H]1CSC(=O)[C@@H]2CCCN2C1=O", "melting point": "98 to 101"},
      {"smiles": "CCn1ncnc1COc1nn2c(-c3ccccc3F)nncc2c1-c1ccccc1", "melting point": "171 to 173"},
      {"smiles": "NC(=O)c1sc2ncnc(-c3cccc(NC(=O)Nc4cccc(C(F)(F)F)c4)c3)c2c1N", "melting point": "201 to 203"},
      {"smiles": "COn1cc(-c2ccccc2)c(=O)c(-c2ccccc2)c1", "melting point": 165},
      {"smiles": "CCOC(=O)c1cncc(-c2cnc3c(c2)N(Cc2cc(F)ccc2F)CCN3)c1", "melting point": "169 to 172"},
      {"smiles": "Cc1cc(C)c2c(c1)OS(=O)(=O)C(=Cc1ccc(N(C)C)cc1)C2=O", "melting point": "214 to 217"},
      {"smiles": "CCOCCC(=O)OCC(=O)C1(O)CCC2C3CC(C)C4=CC(=O)C=CC4(C)C3C(O)CC21C", "note": "(centres undefined)", "melting point": 186},
      {"smiles": "COC(=S)C(C)=CNc1ccc(OC)c(Cl)c1", "melting point": "110 to 112"},
      {"smiles": "COC(=O)NCCCCC(NC(=O)OC)C(=O)OC", "note": "(centres undefined)", "melting point": "187 to 189"},
      {"smiles": "CN1C2CCC(NC(=O)c3n[nH]c4ccccc34)C1CC2", "note": "(centres undefined)", "melting point": "222 to 224"},
      {"smiles": "CCCc1cc(OCc2ccc(C(=O)O)cc2)c2ccccc2n1", "melting point": "225 to 227"},
      {"smiles": "CCOC(=O)CC(O)c1ccc2c(c1)CC(CNS(=O)(=O)c1ccc(Cl)cc1)C2", "note": "(centres undefined)", "melting point": "108 to 111"},
      {"smiles": "COCc1cc(-c2ncc3[nH]c4ccc(Cl)c(Cc5ccc(Cl)cc5)c4c3c2COC)no1", "melting point": "198 to 200"},
      {"smiles": "CN(C)C(=S)n1c(SC(F)(F)C(F)F)nc(-c2ccccc2)c1-c1ccccc1", "melting point": "133 to 134"},
      {"smiles": "N=C(N)NCCc1ccc(OCCC2Oc3ccccc3N(Cc3ccc4ccccc4c3)C2=O)cc1", "note": "(centres undefined)", "melting point": "173 to 178"},
      {"smiles": "c1ccc(N2CCN(c3ccccc3)C2Oc2ccc(C3N(c4ccccc4)CCN3c3ccccc3)cc2)cc1", "melting point": "218 to 221"},
      {"smiles": "CCCc1cn(CC(=O)O)nc1OCCCc1cn(-c2ccc(C(F)(F)F)cn2)nc1OCC", "melting point": "134 to 135"},
      {"smiles": "Nc1ccc(Oc2ccc(C(=O)c3ccc(C#Cc4ccccc4)cc3)cc2)cc1", "melting point": "151 to 153"},
      {"smiles": "CCn1nc(-c2cccc(Cl)c2)c(C(C)=O)c(Nc2cccc3cccnc23)c1=O", "melting point": "127 to 128"},
      {"smiles": "Nc1ccccc1NC(=O)c1cc2cc(OCCN3CCOCC3)ccc2s1", "melting point": "166 to 169"},
      {"smiles": "Fc1ccc(-c2[nH]nc(C3=CCN4CCCC4C3)c2-c2ccncc2)cc1", "note": "(centres undefined)", "melting point": "209 to 214"},
      {"smiles": "FC(F)(F)c1ccc(-c2cc(Oc3ccc4cccnc4c3)nnc2-c2ccccc2)cc1", "melting point": "178 to 183"},
      {"smiles": "CCOC(=O)c1[nH]c(C)c(C)c1OCC1CO1", "note": "(centres undefined)", "melting point": "70 to 71"},
      {"smiles": "Oc1ccc(-c2nnc(CSCCCCOc3ccccc3)o2)cc1", "melting point": "129 to 130"},
      {"smiles": "Nc1ccc(O)cc1/C=C/C(=O)CC(=O)/C=C/c1ccc(O)cc1", "melting point": "186 to 192"},
      {"smiles": "Nc1ncc(-c2cccc(Nc3ccc(-c4ccoc4)cc3N)c2)cn1", "melting point": "208 to 209"},
      {"smiles": "CCOC(=O)C1Oc2ccc(Cl)cc2C(C)(c2ccccc2)O1", "note": "(centres undefined)", "melting point": 92},
      {"smiles": "CC1(C)C(=O)Nc2ccc(F)cc2N1C(=O)N1CCCC1", "melting point": "199 to 200"},
      {"smiles": "COc1ccc(CN2CCCc3cc(O)c(OC)cc3C2)cc1", "melting point": "105 to 107"},
      {"smiles": "COc1ccc(S(=O)(=O)N(C(=O)c2snc(Cl)c2Cl)c2ccc(Cl)cc2)cc1", "melting point": "154 to 158"},
      {"smiles": "CNC(=O)Nc1ccc(Cc2cc(C)c(C(=O)c3ccc(Cl)cc3)n2C)nc1", "melting point": "234 to 236"},
      {"smiles": "CC(C)CNC1NC(=O)N(c2ccccc2C(=O)O)C(=O)N1", "melting point": "> 300"},
      {"smiles": "COC(=O)c1cc(OC(F)F)cnc1C1=NC(C)(C(C)C)C(=O)N1", "note": "(centres undefined)", "melting point": "104 to 105"},
      {"smiles": "Nc1ccc2c(c1)C(=O)N(c1ccc(C(=O)O)cc1)C2=O", "melting point": "270 to 271"},
      {"smiles": "O=C(Nc1ccc(Cc2nnn[nH]2)cc1)C(F)(F)C(F)(F)C(F)(F)C(F)(F)C(F)(F)C(F)(F)C(F)(F)C(F)F", "melting point": "188 to 190"},
      {"smiles": "COc1ccc(-c2c(Cl)c(CN3C(=O)CCC3=O)nc3sc4c(c23)CC/C(=N/O)C4)cc1", "melting point": "248 to 249"},
      {"smiles": "Cc1c(Cl)cc(C(=O)C=CC(=O)O)cc1Cl", "melting point": "206 to 216"},
      {"smiles": "NNC(=O)CCc1csc(NC(N)=NCC(F)(F)F)n1", "melting point": "125 to 126"},
      {"smiles": "Cc1cccc(-c2[nH]c(C(C)C)nc2-c2cccc(-c3ccc(C(N)=O)cn3)c2)n1", "melting point": "138 to 144"},
      {"smiles": "Nc1c(Br)cc(S(=O)(=O)Cl)cc1Br", "melting point": "153 to 155"},
      {"smiles": "C(=C\\c1nc(COc2ccc(CCCCCCn3ccnc3)cc2)co1)/c1ccccc1", "melting point": "108 to 109"},
      {"smiles": "CCCCCCCCCCCCCCCCCCC(N)CN", "note": "(centres undefined)", "melting point": "98 to 101"},
      {"smiles": "Cc1c(-c2ccccc2)c(N2CC[C@H](N(C)C)C2)c2oc(N3CCOCC3)nc2c1C#N", "melting point": "215 to 217"},
      {"smiles": "COCOc1ccc(N(C)S(=O)(=O)c2ccc(C)cc2)c([N+](=O)[O-])c1", "melting point": "110 to 112"},
      {"smiles": "CCCN1CCC(Cc2ccc3c(c2)c(Cc2ccc(C(=O)O)cc2OC)cn3C)C1=O", "note": "(centres undefined)", "melting point": "202 to 212"},
      {"smiles": "CCOC(=O)Cn1c(=O)c2cc(CBr)ccc2n(Cc2ccc(Cl)c(Cl)c2)c1=O", "melting point": "128 to 129"},
      {"smiles": "CS(=O)(=O)On1nnc2c(Cl)cccc21", "melting point": "71 to 74"},
      {"smiles": "COc1cc2c(Nc3ccc(Oc4cccnc4)cc3)c(C#N)cnc2cc1OCC1CCN(C)CC1", "melting point": "182 to 184"},
      {"smiles": "O=C1CCCN1CC1CCN(c2nc(C(F)(F)F)ncc2OCc2ccccc2)CC1", "melting point": "155 to 157"},
      {"smiles": "O=C(NS(=O)(=O)c1ccc(Cl)cc1)N1C(=O)C(c2ccccc2)N1C(c1ccccc1)c1ccccc1", "note": "(centres undefined)", "melting point": "162 to 163"},
      {"smiles": "O=C(O)CNC(=O)c1ncc(-c2cccc(F)c2)cc1O", "melting point": "182 to 184"},
      {"smiles": "CCN(CC)CCNC(=O)c1cc(Cl)c(N)cc1OCCC(C)OC", "note": "(centres undefined)", "melting point": "76 to 78"},
      {"smiles": "COc1cc(/C=C/S(=O)(=O)CS(=O)(=O)/C=C/c2ccc(O)c(OC)c2)ccc1O", "melting point": "125 to 127"},
      {"smiles": "N#CCCNC(=O)c1cccc(-c2ccc3c(c2)N(c2ccc(Cl)c(Cl)c2)CC3)c1", "melting point": "166 to 196"},
      {"smiles": "O=C1Nc2ccccc2C12COc1cc3nccnc3cc12", "note": "(centres undefined)", "melting point": "206 to 207"},
      {"smiles": "Cc1nccn1-c1nc(-c2ccc(Cl)cc2)c(CCCCO)o1", "melting point": "110 to 111"},
      {"smiles": "CNC(=O)n1cc(F)cnc1=O", "melting point": 166},
      {"smiles": "CCCc1c(OCCCCCOc2ccc(CCCCC(=O)O)cc2CCC(=O)O)ccc2c1OCCC2=O", "melting point": "101 to 104"}
    ]}
  ]
}
